From article PMC12155335, “Phenethyl Acetate as an Agonist of Insect Odorant Receptor Co-Receptor (Orco): Molecular Mechanisms and Functional Insights” (International Journal of Molecular Sciences, 2025)

Tests used:
Or1a/Orco = target: T1, Or1a/Orco (Drosophila melanogaster, UniProt Q9VNB5+Q9W5G6); assay: Two-electrode voltage-clamp in Xenopus laevis oocytes expressing Or1a/Orco; format: cell-based, D. melanogaster; conditions: TEVC; for odorant-evoked inward current (activation): −80 mV, octanol 30 μM, PA 10 μM (Figure 2A)
T1 construct: expressed in transfected cells; host or cells: Xenopus laevis oocytes injected with in vitro transcribed mRNA (pGEM-HE)
T1 sequence (Q9W5G6 1-392): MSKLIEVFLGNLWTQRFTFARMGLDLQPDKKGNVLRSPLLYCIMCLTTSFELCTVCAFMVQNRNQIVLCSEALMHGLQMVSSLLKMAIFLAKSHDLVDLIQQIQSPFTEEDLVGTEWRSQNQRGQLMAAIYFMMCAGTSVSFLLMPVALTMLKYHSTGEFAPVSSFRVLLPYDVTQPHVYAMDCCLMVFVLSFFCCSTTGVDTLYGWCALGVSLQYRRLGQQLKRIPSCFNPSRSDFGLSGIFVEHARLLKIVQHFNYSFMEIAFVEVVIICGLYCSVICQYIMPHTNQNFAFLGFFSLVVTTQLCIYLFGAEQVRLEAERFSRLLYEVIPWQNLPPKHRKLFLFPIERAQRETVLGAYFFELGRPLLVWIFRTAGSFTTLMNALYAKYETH
T1 sequence (Q9VNB5 1-486): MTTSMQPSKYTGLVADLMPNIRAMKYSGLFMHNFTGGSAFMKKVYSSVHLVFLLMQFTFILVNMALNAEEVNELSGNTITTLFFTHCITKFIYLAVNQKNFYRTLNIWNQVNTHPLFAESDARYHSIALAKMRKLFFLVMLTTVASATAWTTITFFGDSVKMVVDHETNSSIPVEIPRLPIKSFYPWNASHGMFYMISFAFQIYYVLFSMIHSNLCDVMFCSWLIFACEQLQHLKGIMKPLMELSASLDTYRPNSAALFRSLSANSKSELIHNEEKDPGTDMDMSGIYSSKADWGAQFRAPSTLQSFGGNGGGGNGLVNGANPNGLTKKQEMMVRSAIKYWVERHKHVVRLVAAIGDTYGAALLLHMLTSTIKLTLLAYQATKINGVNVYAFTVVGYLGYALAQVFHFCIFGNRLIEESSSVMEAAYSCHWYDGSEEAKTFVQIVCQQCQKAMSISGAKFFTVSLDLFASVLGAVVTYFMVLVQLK
Method: (§1) The D. melanogaster Or subunits (Or1a, Or24a, and Or35a) (FlyBase IDs: FBgn0029521, FBgn0026394, and FBgn0028946) and the odorant receptor co-receptor Orco (FlyBase ID: FBgn0037324) were synthesized as complementary DNA by Cosmogenetech (Seoul, Republic of Korea). The synthesized cDNA constructs were subcloned into the pGEM-HE expression vector. Plasmid transformation was performed using Escherichia coli DH5α competent cells, and recombinant plasmids were isolated using a miniprep protocol. The integrity of the cloned sequences was confirmed by Sanger sequencing. For complementary RNA synthesis, D. melanogaster Or1a, Or24a, Or35a, and Orco cDNA were linearized with appropriate restriction endonucleases, and digestion efficiency was verified via agarose gel electrophoresis. In vitro transcription was carried out using T7 RNA polymerase (mMESSAGE mMACHINE T7 Transcription Kit; Thermo Fisher Scientific, Waltham, MA, USA). The resulting mRNA was precipitated, resuspended in DEPC-treated water, and stored at −80 °C for subsequent experiments.
(§2) Xenopus laevis frogs were obtained from the Korean Xenopus Resource Center for Research (KXRCR000001, Gangwon, Republic of Korea). The isolation and maintenance of Xenopus oocytes followed the standardized protocols described by Pyeon et al. and complied with the ethical guidelines of Chonnam National University (CNU IACUC-YB-2016-07, July 2016). Microinjection of 50 ng of mRNA per oocyte was performed using a nanoliter injector (Drummond Scientific, Vernon Hills, IL, USA). Following injection, the oocytes were incubated at 18 °C in a shaking incubator to facilitate optimal protein expression before electrophysiological recordings.
(§3) The two-electrode voltage-clamp (TEVC) experiments were conducted following established protocols as described in Lee et al.. […]
(§4) All values are presented as the mean ± S.E.M. (standard error of the mean) following data analysis. Data collected using the two-electrode voltage-clamp technique were analyzed with SigmaPlot 10.0 software. […]

Or24a/Orco = target: T2, Or24a/Orco (Drosophila melanogaster, UniProt P81913+Q9VNB5); assay: Two-electrode voltage-clamp in Xenopus laevis oocytes expressing Or24a/Orco; format: cell-based, D. melanogaster; conditions: TEVC; for odorant-evoked inward current (activation): −80 mV, octanol 10 μM, PA 10 μM (Figure 2B)
T2 construct: expressed in transfected cells; host or cells: Xenopus laevis oocytes injected with in vitro transcribed mRNA (pGEM-HE)
T2 sequence (P81913 1-398): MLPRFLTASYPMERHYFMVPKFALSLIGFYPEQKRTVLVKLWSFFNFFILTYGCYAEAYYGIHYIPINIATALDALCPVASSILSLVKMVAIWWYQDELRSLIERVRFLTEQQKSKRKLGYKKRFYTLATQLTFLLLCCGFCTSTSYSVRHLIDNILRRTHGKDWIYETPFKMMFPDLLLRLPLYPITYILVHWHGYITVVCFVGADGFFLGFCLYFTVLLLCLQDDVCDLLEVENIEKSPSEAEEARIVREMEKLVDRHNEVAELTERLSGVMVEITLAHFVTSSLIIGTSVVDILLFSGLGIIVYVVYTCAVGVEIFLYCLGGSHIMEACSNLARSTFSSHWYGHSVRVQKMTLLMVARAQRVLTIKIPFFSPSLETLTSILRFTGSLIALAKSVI
T2 sequence (Q9VNB5 1-486): T1 sequence (Q9VNB5 1-486)
Method: as §1, §2, §3, §4

Or35a/Orco = target: T3, Or35a/Orco (Drosophila melanogaster, UniProt Q9V3Q2+Q9VNB5); assay: Two-electrode voltage-clamp in Xenopus laevis oocytes expressing Or35a/Orco; format: cell-based, D. melanogaster; conditions: TEVC; for odorant-evoked inward current (activation): −80 mV, octanol 10 μM, PA 10 μM (Figure 2C)
T3 construct: expressed in transfected cells; host or cells: Xenopus laevis oocytes injected with in vitro transcribed mRNA (pGEM-HE)
T3 sequence (Q9V3Q2 1-409): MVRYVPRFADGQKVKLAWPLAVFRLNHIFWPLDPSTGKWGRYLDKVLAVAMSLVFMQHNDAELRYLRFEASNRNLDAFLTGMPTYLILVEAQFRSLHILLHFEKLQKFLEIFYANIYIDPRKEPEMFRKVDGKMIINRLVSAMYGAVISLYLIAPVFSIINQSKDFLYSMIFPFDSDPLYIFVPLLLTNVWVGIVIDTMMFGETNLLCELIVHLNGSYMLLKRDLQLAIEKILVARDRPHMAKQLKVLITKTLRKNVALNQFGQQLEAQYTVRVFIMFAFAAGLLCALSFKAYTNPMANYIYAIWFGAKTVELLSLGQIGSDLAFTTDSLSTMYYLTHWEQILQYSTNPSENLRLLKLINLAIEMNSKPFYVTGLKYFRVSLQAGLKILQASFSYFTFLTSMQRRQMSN
T3 sequence (Q9VNB5 1-486): T1 sequence (Q9VNB5 1-486)
Method: as §1, §2, §3, §4

Orco homomers = target: T4, Orco homomers (Drosophila melanogaster, UniProt Q9VNB5); assay: Two-electrode voltage-clamp in Xenopus laevis oocytes expressing Orco homomers; format: cell-based; conditions: for odorant-evoked inward current (activation): Orco alone, −80 mV, octanol 10 μM, PA 10 μM (Figure 2D)
T4 construct: expressed in transfected cells; host or cells: Xenopus laevis oocytes injected with Orco mRNA
T4 sequence (Q9VNB5 1-486): T1 sequence (Q9VNB5 1-486)
Method: as §1, §2
(§5) The two-electrode voltage-clamp (TEVC) experiments were conducted following established protocols as described in Lee et al.. This methodology ensures the accurate measurement of odorant receptor activation and has been widely used in previous studies on insect olfactory receptors. The molecular interaction between the odorant receptor (Or) and its ligand was examined using Or-expressing oocytes. Electrophysiological recordings were conducted with a two-electrode voltage-clamp system (OC-725C; Warner Instruments, Hamden, CT, USA) and digitized using a Digidata acquisition system (1322A; Molecular Devices, Sunnyvale, CA, USA). The oocyte membrane potential was clamped at −80 mV. Stock solutions of each compound were prepared by dissolving them in ND96 buffer (58.44 mM NaCl, 2 mM KCl, 1 mM MgCl2, 1.8 mM CaCl2, 5 mM HEPES, pH of 7.4) at the appropriate concentrations before use. […]
as §4

[1] = test system: Or1a, Or24a, and Or35a co-expressed with mutant Orco; assay: Two-electrode voltage-clamp, Or1a, Or24a, Or35a co-expressed with mutant Orco; format: cell-based, D. melanogaster; conditions: TEVC, 10 µM octanol, mutant Orco co-expressed with Ors
Method: as §2
The two-electrode voltage-clamp (TEVC) experiments were conducted following established protocols as described in Lee et al.. This methodology ensures the accurate measurement of odorant receptor activation and has been widely used in previous studies on insect olfactory receptors. The molecular interaction between the odorant receptor (Or) and its ligand was examined using Or-expressing oocytes. […]
(§6) To validate the potential binding sites predicted by 3D protein–ligand docking simulations, molecular characterization was conducted through site-directed mutagenesis. […] The effect of these mutations on PA-binding affinity was evaluated through two-electrode voltage-clamp recordings.

W146A Orco = W146A Orco (Drosophila melanogaster, UniProt Q9VNB5, W150A); assay: Two-electrode voltage-clamp, W146A mutant Orco; format: cell-based, D. melanogaster
W146A Orco, sequence (Q9VNB5 whole entry W150A): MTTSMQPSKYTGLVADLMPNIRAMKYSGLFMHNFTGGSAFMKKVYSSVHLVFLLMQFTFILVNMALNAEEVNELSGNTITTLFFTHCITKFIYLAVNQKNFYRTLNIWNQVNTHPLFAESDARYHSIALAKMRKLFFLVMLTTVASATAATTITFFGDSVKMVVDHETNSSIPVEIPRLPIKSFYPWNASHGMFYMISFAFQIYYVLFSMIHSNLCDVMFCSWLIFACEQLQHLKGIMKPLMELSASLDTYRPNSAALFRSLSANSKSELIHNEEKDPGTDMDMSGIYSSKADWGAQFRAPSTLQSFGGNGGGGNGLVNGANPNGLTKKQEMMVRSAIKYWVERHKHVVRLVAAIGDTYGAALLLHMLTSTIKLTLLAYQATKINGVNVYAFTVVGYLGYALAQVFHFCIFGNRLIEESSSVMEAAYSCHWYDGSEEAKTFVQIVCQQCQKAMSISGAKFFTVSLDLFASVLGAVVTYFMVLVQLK
Method: as §2, §3, §6, §4

E153A Orco = E153A Orco (Drosophila melanogaster, UniProt Q9VNB5); assay: Two-electrode voltage-clamp, E153A mutant Orco; format: cell-based, D. melanogaster; conditions: TEVC
Method: as §2, §3, §6, §4

[2] = test system: double mutation (W146A + E153A) Orco; assay: Two-electrode voltage-clamp, double-mutant Orco; format: cell-based, D. melanogaster; conditions: TEVC (Figure 5)
Method: as §2, §3, §6, §4

uninjected oocytes = assay: Two-electrode voltage-clamp control on uninjected oocytes; format: cell-based, Xenopus laevis; conditions: control experiment, TEVC
Method: as §2
as §5, with “mV.” for “mV. Stock solutions of each compound were prepared by dissolving them in ND96 buffer (58.44 mM NaCl, 2 mM KCl, 1 mM MgCl2, 1.8 mM CaCl2, 5 mM HEPES, pH of 7.4) at the appropriate concentrations before use.”

[3] = Xenopus oocytes, holding potential −80 mV, mean ± SEM, read-out: half-maximal effective concentration (EC50)

| Compound | odorant-evoked inward current (activation) (Or1a/Orco) | odorant-evoked inward current (activation) (Or24a/Orco) | odorant-evoked inward current (activation) (Or35a/Orco) | odorant-evoked inward current (activation) (Orco homomers; TEVC) | activation by octanol with mutant Orco [1] | EC50 (Or1a/Orco; [3]) | EC50 (Or24a/Orco; [3]) | EC50 (Or35a/Orco; [3]) | voltage dependence of activation (current–voltage relationship) (Orco homomers; voltage ramps, PA 0.3 µM and 3 µM, Orco homomeric receptor (Figure 3D)) | EC50 (Orco homomers; wild-type Orco homomers, TEVC, Xenopus oocytes, holding potential −80 mV, mean ± SEM, read-out: half-maximal effective concentration (EC50)) | EC50 (W146A Orco) | PA-induced currents versus wild type (W146A Orco; single mutation W146A, TEVC, 10 µM PA (Figure 5)) | EC50 (E153A Orco; E153A Orco homomers, Xenopus oocytes, −80 mV) | PA-induced currents versus wild type (E153A Orco; single mutation E153A, 10 µM PA (Figure 5)) | PA activation versus wild type [2] | effect on uninjected oocytes (uninjected oocytes) |
| --- | --- | --- | --- | --- | --- | --- | --- | --- | --- | --- | --- | --- | --- | --- | --- | --- |
| CCCCCCCCO [octanol, reference compound] | induced robust inward currents | induced robust inward currents | induced robust inward currents | failed to activate | remained consistent |  |  |  |  |  |  |  |  |  |  |  |
| CC(=O)OCCc1ccccc1 [PA, phenethyl acetate] | induced inward currents | induced inward currents | induced inward currents | induced inward currents |  | 2.1 ± 1.2 µM | 2.8 ± 0.2 µM | 5.9 ± 1.1 µM | voltage-independent activation | 0.4 ± 0.2 µM | 17.9 ± 2.1 µM | significantly reduced | 12.8 ± 1.9 µM | significantly reduced | nearly abolished | no effect |
